Test results as given in ChEMBL document CHEMBL5329196, “Development of truncated Battacin antimicrobials featuring novel N-terminal fatty acids with an excellent safety profile” (Bioorg Med Chem Lett, 2023).
Converted amounts (≈) assume the structure as drawn. Where a SMILES comes first, the peptide text is derived from it.

How the values were obtained:
Staphylococcus aureus = test: Antibacterial activity against Staphylococcus aureus assessed as inhibition of bacterial growth incubated for 24 hrs by visual inspection analysis; assay type: functional
NCI-H460 = test: (§1) Cytotoxicity against human NCI-H460 cells assessed as reduction in cell viability measured after 24 hrs by quantitative live/dead fluorescence microscopy; assay type: toxicity, cell-based; conditions: nci-h460
MDA-MB-231 = test: (§2) Cytotoxicity against human MDA-MB-231 cells assessed as reduction in cell viability measured after 24 hrs by quantitative live/dead fluorescence microscopy; assay type: toxicity, cell-based; conditions: mda-mb-231
Erythrocyte = test: (§3) Induction of hemolysis in mouse RBC assessed as induction of hemoglobin release incubated for 1 hr by absorbance based analysis; assay type: toxicity, cell-based; conditions: erythrocyte
[1] = Pro-aggregation of the compound in human NCI-H460 cells at 1 mM by Bright field microscopic analysis; assay type: physicochemical, cell-based; conditions: nci-h460, 1000 µM
[2] = Pro-aggregation of the compound in human NCI-H460 cells at 1 mM by fluorescence microscopic analysis; assay type: physicochemical, cell-based; conditions: nci-h460, 1000 µM
[3] = Pro-aggregation of the compound in human MDA-MB-231 cells at 1 mM by Bright field microscopic analysis; assay type: physicochemical, cell-based; conditions: mda-mb-231, 1000 µM
[4] = Pro-aggregation of the compound in human MDA-MB-231 cells at 1 mM by fluorescence microscopic analysis; assay type: physicochemical, cell-based; conditions: mda-mb-231, 1000 µM
[5] = Induction of hemolysis in mouse RBC assessed as induction of hemoglobin release at ~100 uM incubated for 1 hr by absorbance based analysis; assay type: toxicity, cell-based, Erythrocyte; conditions: mouse red blood cells (erythrocytes), read-out: Activity
[6] = Induction of hemolysis in mouse RBC assessed as induction of hemoglobin release at ~400 uM incubated for 1 hr by absorbance based analysis; assay type: toxicity, cell-based, Erythrocyte; conditions: mouse red blood cells (erythrocytes), read-out: Activity
[7] = as §1; assay type: toxicity, cell-based; conditions: human, NCI-H460 cells
[8] = as §2; assay type: toxicity, cell-based; conditions: human, MDA-MB-231 cells
[9] = Selectivity ratio of EC50 for cytotoxicity against human MDA-MB-231 cells to EC50 for cytotoxicity against human NCI-H460 cells; assay type: functional
[10] = as §3; assay type: toxicity, cell-based, Erythrocyte; conditions: mouse, mouse red blood cells (erythrocytes)
[11] = Therapeutic index, ratio of EC50 for induction of hemolytic activity against mouse RBC to MIC for antibacterial activity against Staphylococcus aureus; assay type: toxicity; conditions: mouse red blood cells (erythrocytes), read-out: TI

Compound	MIC (Staphylococcus aureus) [µM]	Activity [1]	Activity [2]	Activity [3]	Activity [4]	further results
C=CC(C)C(C)C(=O)N[C@H](CCN)C(=O)N[C@@H](CCN)C(=O)N[C@@H](CC(C)C)C(=O)N[C@H](Cc1ccccc1)C(=O)N[C@@H](CCN)C(N)=O (stereo partly drawn)	18.2 (≈ 12.5 µg/mL)	–	–	–	–	–
CCC(C)CCC(=O)N[C@H](CCN)C(=O)N[C@@H](CCN)C(=O)N[C@@H](CC(C)C)C(=O)N[C@H](Cc1ccccc1)C(=O)N[C@@H](CCN)C(N)=O (stereo partly drawn) (HELM PEPTIDE1{[CCC(C)CCC(=O)[*:2]].[NCC[C@@H](N[*:1])C(=O)[*:2]].[Dab].L.[dF].[Dab].[am]}$$$$V2.0)	4.5 (≈ 3.1 µg/mL)	–	–	–	–	–
CC(C)C[C@H](NC(=O)[C@H](CCN)NC(=O)[C@@H](CCN)NC(=O)C(C)C(C)/C=C/c1ccccc1)C(=O)N[C@H](Cc1ccccc1)C(=O)N[C@@H](CCN)C(N)=O (stereo partly drawn)	1 (≈ 0.764 µg/mL)	Active	Active	Active	Active	hemolysis at 1 h, 400 µM [6]: 3.4%; EC50 at 24 h [7]: 324 µM; EC50 at 24 h [8]: 898 µM; Ratio EC50 [9]: 2; EC50 at 1 h [10]: ≥ 400 µM; selectivity ratio [11]: > 267
CN[C@@H]1[C@H](O[C@H]2[C@H](O[C@H]3[C@H](O)[C@@H](O)[C@H](N=C(N)N)[C@@H](O)[C@@H]3N=C(N)N)O[C@@H](C)[C@]2(O)C=O)O[C@@H](CO)[C@H](O)[C@H]1O [STREPTOMYCIN]	1.3 (≈ 0.756 µg/mL)	–	–	–	–	–

More lines, main results first:

MIC (Staphylococcus aureus) [µM]	Activity [1]	Activity [2]	Activity [3]	Activity [4]	Compound	further results
2.1 (≈ 1.55 µg/mL)	–	–	–	–	CC(C)C[C@H](NC(=O)[C@H](CCN)NC(=O)[C@@H](CCN)NC(=O)CC/C=C/c1ccccc1)C(=O)N[C@H](Cc1ccccc1)C(=O)N[C@@H](CCN)C(N)=O	–
–	Not Active	Not Active	Not Active	Not Active	POLYMYXIN B	EC50 (NCI-H460): 181 µM; EC50 (MDA-MB-231): > 1000 µM; EC50 (Erythrocyte): ≥ 1000 µM
1 (≈ 0.792 µg/mL)	Active	Active	Active	Active	CCCCc1ccc(/C=C/CCC(=O)N[C@H](CCN)C(=O)N[C@@H](CCN)C(=O)N[C@@H](CC(C)C)C(=O)N[C@H](Cc2ccccc2)C(=O)N[C@@H](CCN)C(N)=O)cc1	hemolysis at 1 h, 100 µM [5]: 56%; hemolysis at 1 h, 400 µM [6]: 77%; EC50 at 24 h [7]: 31 µM; EC50 at 24 h [8]: 67 µM; Ratio EC50 [9]: 2; EC50 at 1 h [10]: ~90 µM; selectivity ratio [11]: 60
1 (≈ 0.764 µg/mL)	–	–	–	–	CCc1ccc(/C=C/CCC(=O)N[C@H](CCN)C(=O)N[C@@H](CCN)C(=O)N[C@@H](CC(C)C)C(=O)N[C@H](Cc2ccccc2)C(=O)N[C@@H](CCN)C(N)=O)cc1	–
2 (≈ 1.53 µg/mL)	–	–	–	–	COc1ccc(/C=C/CCC(=O)N[C@H](CCN)C(=O)N[C@@H](CCN)C(=O)N[C@@H](CC(C)C)C(=O)N[C@H](Cc2ccccc2)C(=O)N[C@@H](CCN)C(N)=O)cc1	–
75.8 (≈ 50 µg/mL)	–	–	–	–	C=CCCC(=O)N[C@H](CCN)C(=O)N[C@@H](CCN)C(=O)N[C@@H](CC(C)C)C(=O)N[C@H](Cc1ccccc1)C(=O)N[C@@H](CCN)C(N)=O	–
1 (≈ 0.794 µg/mL)	Active	Active	Active	Active	CCCOc1ccc(/C=C/CCC(=O)N[C@H](CCN)C(=O)N[C@@H](CCN)C(=O)N[C@@H](CC(C)C)C(=O)N[C@H](Cc2ccccc2)C(=O)N[C@@H](CCN)C(N)=O)cc1	hemolysis at 1 h, 100 µM [5]: 2.1%; EC50 at 24 h [7]: 90 µM; EC50 at 24 h [8]: 221 µM; Ratio EC50 [9]: 2; EC50 at 1 h [10]: ~330 µM; selectivity ratio [11]: 135
